Values of other authors as cited in patent US9512385B2, “Disinfectant solution for nonionic soft contact lenses” (MENICON CO., LTD., priority 2012, dated 2016).

Details: background art statement

polylysine
IC50 value in cytotoxicity test relative to PHMB: about several hundredth part of that of PHMB
